Drawing on patent US12404244B2, “Pan-KIT kinase inhibitor having quinoline structure and application thereof” (Tarapeutics Science Inc., priority 2018, dated 2025), this text covers GI50 for three molecules.

Like-named read-outs stand apart in the source and are kept apart here.

The subject of assay [1] is TEL-KIT/V559D-BaF3. Nature of the assay: Proliferation of TEL-KIT/V559D-BaF3 cells (CCK-8). To be noted: Mus musculus, read-out: GI50 TEL-KIT/V559D-BaF3. The assay is classed as cell-based. An excerpt:
(§1) Compounds as provided herein were further evaluated for their inhibitory effects on proliferation of cancer cells by testing their effects on growth of cancer cells. In this example the following cells were used: primary mouse B cells BaF3 (purchased from ATCC), GIST-T1 cells of the human gastrointestinal stromal tumor cell line (expressing wild-type KIT gene) (purchased from Cosmo Bio Co., Ltd. (Japan)). The present lab further constructed and used the following: mouse Tel-Kit-BaF3 (stably expressing KIT wild-type kinase), mouse Tel-Kit/T670I-BaF3 (stably expressing KIT T670I mutant kinase), mouse Tel-Kit/V559A-BaF3 (stably expressing KIT V559A mutant kinase), mouse Tel-Kit/V559D-BaF3 (stably expressing KIT V559D mutant kinase), mouse Tel-Kit/V559G-BaF3 (stably expressing KIT V559G mutant kinase), mouse Tel-Kit/V560D-BaF3 (stably expressing KIT V560D mutant kinase), mouse Tel-Kit/L576P-BaF3 (stably expressing KIT L576P mutant kinase), mouse Tel-Kit/V654A-BaF3 (stably expressing KIT V654A mutant kinase), mouse Tel-Kit/V654A/V559D-BaF3 (stably expressing KIT V654A V559D mutant kinase), mouse Tel-Kit/T670E-BaF3 (stably expressing KIT T670E mutant kinase), mouse Tel-Kit/T670I/V559D-BaF3 (stably expressing KIT T670I V559D mutant kinase), mouse Tel-Kit/S709F-BaF3 (stably expressing KIT S709F mutant kinase), mouse Tel-Kit/D816E-BaF3 (stably expressing KIT D816E mutant kinase), mouse Tel-Kit/D816H-BaF3 (stably expressing KIT D816H mutant kinase), mouse Tel-Kit/D820E-BaF3 (stably expressing KIT D820E mutant kinase), mouse Tel-Kit/D820G-BaF3 (stably expressing KIT D820G mutant kinase), mouse Tel-Kit/D820Y-BaF3 (stably expressing KIT D820Y mutant kinase), mouse Tel-Kit/N822K-BaF3 (stably expressing KIT N822K mutant kinase), mouse Tel-Kit/Y823D-BaF3 (stably expressing KIT Y823D mutant kinase), mouse Tel-Kit/A829P-BaF3 (stably expressing KIT A829P mutant kinase), GIST-T1-T670I cells of the human gastrointestinal stromal tumor cell line (expressing KIT-T670I mutant gene). The above cell lines were constructed by: amplifying respectively the sequences of human KIT and various mutant kinase regions of KIT via PCR, inserting the fragments respectively into MSCV-Puro vectors having a N-terminal TEL fragment and/or a NPM fragment and/or a TPR fragment (purchased from Clontech), transfecting mouse BaF3 cells with the vectors by means of retrovirus to obtain stably transfected cells, removing the growth factor IL-3, and thereby eventually obtaining cell lines that depend on the transferred protein KIT or various mutants of KIT. […]

In assay [2] the test system is TEL-KIT/D820G-BaF3. Put plainly: Proliferation of TEL-KIT/D820G-BaF3 cells (CCK-8). The assay is classed as cell-based. To be noted: Mus musculus, read-out: GI50 TEL-KIT/D820G-BaF3.
From the text: as §1

For assay [3], the system named is TEL-KIT/D816E-BaF3. Put plainly: Proliferation of TEL-KIT/D816E-BaF3 cells (CCK-8). The assay is classed as cell-based. To be noted: Mus musculus, read-out: GI50 TEL-KIT/D816E-BaF3.
From the text: as §1

Assay [4] has as its system TEL-KIT/V559G-BaF3. Put plainly: Proliferation of TEL-KIT/V559G-BaF3 cells (CCK-8). The assay is classed as cell-based. As to conditions: Mus musculus, read-out: GI50 TEL-KIT/V559G-BaF3.
From the text: as §1

Assay [5] concerns TEL-KIT-BaF3 (stably expressing KIT wild-type kinase). Put plainly: Proliferation of TEL-KIT-BaF3 cells (CCK-8). The format is cell-based, mouse. As to conditions: Mus musculus, read-out: GI50 TEL-KIT-BaF3. An excerpt: Compounds as provided herein were further evaluated for their inhibitory effects on proliferation of cancer cells by testing their effects on growth of cancer cells. In this example the following cells were used: primary mouse B cells BaF3 (purchased from ATCC), GIST-T1 cells of the human gastrointestinal stromal tumor cell line (expressing wild-type KIT gene) (purchased from Cosmo Bio Co., Ltd. (Japan)). The present lab further constructed and used the following: mouse Tel-Kit-BaF3 (stably expressing KIT wild-type kinase), mouse Tel-Kit/T670I-BaF3 (stably expressing KIT T670I mutant kinase), mouse Tel-Kit/V559A-BaF3 (stably expressing KIT V559A mutant kinase), mouse Tel-Kit/V559D-BaF3 (stably expressing KIT V559D mutant kinase), mouse Tel-Kit/V559G-BaF3 (stably expressing KIT V559G mutant kinase), mouse Tel-Kit/V560D-BaF3 (stably expressing KIT V560D mutant kinase), mouse Tel-Kit/L576P-BaF3 (stably expressing KIT L576P mutant kinase), mouse Tel-Kit/V654A-BaF3 (stably expressing KIT V654A mutant kinase), mouse Tel-Kit/V654A/V559D-BaF3 (stably expressing KIT V654A V559D mutant kinase), mouse Tel-Kit/T670E-BaF3 (stably expressing KIT T670E mutant kinase), mouse Tel-Kit/T670I/V559D-BaF3 (stably expressing KIT T670I V559D mutant kinase), mouse Tel-Kit/S709F-BaF3 (stably expressing KIT S709F mutant kinase), mouse Tel-Kit/D816E-BaF3 (stably expressing KIT D816E mutant kinase), mouse Tel-Kit/D816H-BaF3 (stably expressing KIT D816H mutant kinase), mouse Tel-Kit/D820E-BaF3 (stably expressing KIT D820E mutant kinase), mouse Tel-Kit/D820G-BaF3 (stably expressing KIT D820G mutant kinase), mouse Tel-Kit/D820Y-BaF3 (stably expressing KIT D820Y mutant kinase), mouse Tel-Kit/N822K-BaF3 (stably expressing KIT N822K mutant kinase), mouse Tel-Kit/Y823D-BaF3 (stably expressing KIT Y823D mutant kinase), mouse Tel-Kit/A829P-BaF3 (stably expressing KIT A829P mutant kinase), GIST-T1-T670I cells of the human gastrointestinal stromal tumor cell line (expressing KIT-T670I mutant gene). The above cell lines were constructed by: amplifying respectively the sequences of human KIT and various mutant kinase regions of KIT via PCR, inserting the fragments respectively into MSCV-Puro vectors having a N-terminal TEL fragment and/or a NPM fragment and/or a TPR fragment (purchased from Clontech), transfecting mouse BaF3 cells with the vectors by means of retrovirus to obtain stably transfected cells, removing the growth factor IL-3, and thereby eventually obtaining cell lines that depend on the transferred protein KIT or various mutants of KIT. The GIST-T1-T670I (expressing C-KIT-T670I mutant gene) cell line was constructed by our laboratory as follows: designing sgRNA that targeted a region around T670 of the KIT gene with CRISPR Design Tool (website: crispr.mit.edu, Zhang Feng Lab), cloning it into pSpCas9(BB)-2A-Puro vector; co-transfecting cells with the resultant vector and a single-stranded oligonucleotide having T670I site mutation that is near to T670, subjecting the resultant to antibiotics screening, followed by dilution, and monocellular culture in a 96-well plate; validating the site T670 of the cells by sequence detection via Sanger sequencing.
The cells after incubation were detected using CCK-8 (purchased from MedChem Express, Shanghai, China) cell viability assay kit (CCK-8 may be reduced by dehydrogenase in living cells to a highly water-soluble yellow formazan product, and the amount of the resultant formazan is proportional to the number of living cells), the number of living cells were quantified with a microplate reader, and GI50 of the compounds and the control compounds were calculated (the results shown in Table 2 and Table 3).

For assay [6], the system named is TEL-KIT/A829P-BaF3. Put plainly: Proliferation of TEL-KIT/A829P-BaF3 cells (CCK-8). As to conditions: Mus musculus, read-out: GI50 TEL-KIT/A829P-BaF3. The assay is classed as cell-based.
From the text: as §1

The subject of assay [7] is TEL-KIT/T670E-BaF3. Put plainly: Proliferation of TEL-KIT/T670E-BaF3 cells (CCK-8). The assay is classed as cell-based. As to conditions: Mus musculus, read-out: GI50 TEL-KIT/T670E-BaF3.
From the text: as §1

In assay [8] the test system is TEL-KIT/D816H-BaF3. Nature of the assay: Proliferation of TEL-KIT/D816H-BaF3 cells (CCK-8). The format is cell-based. As to conditions: Mus musculus, read-out: GI50 TEL-KIT/D816H-BaF3.
From the text: as §1

In the case of `COc1cc2nccc(Oc3ccc(NC(=O)Cc4ccc(Cl)c(C(F)(F)F)c4)cc3)c2cc1OC` [Example 2, N-(4-((6,7-dimethoxyquinolin-4-yl)oxy)phenyl)-2-(4-chloro-3-(trifluoromethyl)phenyl)-acetamide], the GI50 in assay [1] (72 hours, CCK-8) is 6 nM; in assay [2] (72 hours, CCK-8), 9 nM; in assay [3] (72 hours, CCK-8) it was 16 nM; in assay [4] (72 hours, CCK-8), below 0.3 nM; in assay [5] (KIT wild-type, 72 hours, CCK-8), 1 nM; in assay [6] (72 hours, CCK-8) it was 22 nM. Moreover, the GI50 in assay [7] (72 hours, CCK-8) came to 71 nM; in assay [8] (72 hours, CCK-8) it was 97 nM.

On to `COc1cc2nccc(Oc3ccc(NC(=O)Cc4ccc(C)c(C(F)(F)F)c4)cc3)c2cc1OC` [Example 1, N-(4-((6,7-dimethoxyquinolin-4-yl)oxy)phenyl)-2-(4-methyl-3-(trifluoromethyl)phenyl)acetamide], for which the GI50 in assay [1] (72 h) is 4 nM; in assay [2] (72 h), 9 nM; in assay [3] (72 h), 9 nM; in assay [4] (72 h) it was below 0.3 nM; in assay [5] (72 h), 17 nM; in assay [6] (72 h) it was 8 nM. The GI50 in assay [7] (72 h) is 53 nM; in assay [8] (72 h), 58 nM.

For the molecule `CCN(CC)CCNC(=O)c1c(C)[nH]c(/C=C2\C(=O)Nc3ccc(F)cc32)c1C` [Sunitinib, reference compound], the GI50 turned out to be 1 nM in assay [1] (72 hours, CCK-8); 389 nM in assay [2] (72 hours, CCK-8); 59 nM in assay [3] (72 hours, CCK-8); 4 nM in assay [4] (72 hours, CCK-8); 180 nM in assay [6] (72 hours, CCK-8); 89 nM in assay [7] (72 hours, CCK-8). For the same molecule, the GI50 in assay [8] (72 hours, CCK-8) came to 315 nM.
